Measured values: PubChem BioAssay AID256 (DTP/NCI, 2004)
Several values for one entry are separate records, joined by “and”; a condition that tells them apart may be missing. Equal values may be shown once. Toxic doses and inconclusive results are not listed.

Tested on: CD2F1 mice, L1210 leukemia ip, survival T/C
Test: NCI In Vivo Anticancer Drug Screen. Data for tumor model L1210 Leukemia (intraperitoneal) in CD2F1 (CDF1) mice
Conditions: higher = longer survival
Procedure, shortened: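 Read-out first: treated-group measurement over vehicle-control measurement, expressed as a ratio. Animals bore a transplanted tumor line and were dosed with compound or vehicle.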

[1] = endpoint: mean survival time, dose: 100.0 mg/kg/injection, schedule: Q04DX003 (ip), vehicle: saline with Tween-80
[2] = endpoint: mean survival time, dose: 200.0 mg/kg/injection, schedule: Q04DX003 (ip), vehicle: saline with Tween-80
[3] = endpoint: mean survival time, dose: 400.0 mg/kg/injection, schedule: Q04DX003 (ip), vehicle: saline with Tween-80
[4] = endpoint: mean survival time, dose: 100.0 mg/kg/injection, schedule: Q01DX009 (ip), vehicle: saline with Tween-80
[5] = endpoint: mean survival time, dose: 200.0 mg/kg/injection, schedule: Q01DX009 (ip), vehicle: saline with Tween-80
[6] = endpoint: mean survival time, dose: 400.0 mg/kg/injection, schedule: Q01DX009 (ip), vehicle: saline with Tween-80
[7] = endpoint: mean survival time, dose: 100.0 mg/kg/injection, schedule: Q01DX001 (ip), vehicle: saline
[8] = endpoint: mean survival time, dose: 200.0 mg/kg/injection, schedule: Q01DX001 (ip), vehicle: saline
[9] = endpoint: mean survival time, dose: 400.0 mg/kg/injection, schedule: Q01DX001 (ip), vehicle: saline
[10] = endpoint: mean survival time, dose: 100.0 mg/kg/injection, schedule: Q01DX001 (ip), vehicle: saline with Tween-80
[11] = endpoint: mean survival time, dose: 200.0 mg/kg/injection, schedule: Q01DX001 (ip), vehicle: saline with Tween-80

`CC1=CC2=C(C=O)C(=O)[C@](C)(O)[C@@H](O)C2=CO1` was tested, and the T/C (endpoint: mean survival time, dose: 12.5 mg/kg/injection, schedule: Q01DX009 (ip), vehicle: saline with Tween-80) was 114 % of control, the T/C (endpoint: mean survival time, dose: 25.0 mg/kg/injection, schedule: Q01DX009 (ip), vehicle: saline with Tween-80) was 111 % of control and the T/C (endpoint: mean survival time, dose: 50.0 mg/kg/injection, schedule: Q01DX009 (ip), vehicle: saline with Tween-80) was 122 % of control.

`O=P(CCCCl)(OCCCCl)OCCCCl` was tested, and the T/C (endpoint: mean survival time, dose: 100.0 mg/kg/injection, schedule: Q01DX009 (ip), vehicle: saline) was 100 % of control, the T/C (endpoint: mean survival time, dose: 200.0 mg/kg/injection, schedule: Q01DX009 (ip), vehicle: saline) was 101 % of control and the T/C (endpoint: mean survival time, dose: 400.0 mg/kg/injection, schedule: Q01DX009 (ip), vehicle: saline) was 100 % of control.

For `CC(C)NC(=O)Oc1ccccc1C(=O)OCc1ccccc1`, the T/C (endpoint: mean survival time, dose: 50.0 mg/kg/injection, schedule: Q01DX009 (ip), vehicle: Klucel (hydroxypropylcellulose) (HPC)) was 115 % of control, the T/C (endpoint: mean survival time, dose: 100.0 mg/kg/injection, schedule: Q01DX009 (ip), vehicle: Klucel (hydroxypropylcellulose) (HPC)) was 108 % of control and the T/C (endpoint: mean survival time, dose: 200.0 mg/kg/injection, schedule: Q01DX009 (ip), vehicle: Klucel (hydroxypropylcellulose) (HPC)) was 112 % of control.

In the case of `CCCCCC(O)C1CCCCC1C` (configuration not stated), the T/C [1] is reported as 105 % of control, the T/C [2] is reported as 102 % of control and the T/C [3] is reported as 90 % of control.

With `ClC(Cl)c1c2c(cc3c1CCCC3)CCCC2` the T/C [4] was 113 % of control, the T/C [5] was 116 % of control and the T/C [6] was 102 % of control.

In the case of `CCOC(=O)c1c(O)csc1N`, the T/C [1] is reported as 110 % of control, the T/C [2] is reported as 98 % of control and the T/C [3] is reported as 98 % of control.

`Nc1nc(=S)c2[nH]c(N=Nc3ccc(S(N)(=O)=O)cc3)nc2[nH]1` was tested, and the T/C (endpoint: mean survival time, dose: 50.0 mg/kg/injection, schedule: Q04DX003 (ip), vehicle: Klucel (hydroxypropylcellulose) (HPC)) was 123 % of control.

For `N#C[SH2+].N#C[SH2+].N#C[SH2+].N#C[SH2+].[Cu+2].c1ccc(C[P+](c2ccccc2)(c2ccccc2)c2ccccc2)cc1`, the T/C (endpoint: mean survival time, dose: 6.0 mg/kg/injection, schedule: Q04DX003 (ip), vehicle: saline) was 91 % of control, the T/C (endpoint: mean survival time, dose: 12.0 mg/kg/injection, schedule: Q04DX003 (ip), vehicle: saline) was 89 % of control and the T/C (endpoint: mean survival time, dose: 25.0 mg/kg/injection, schedule: Q04DX003 (ip), vehicle: saline) was 96 % of control.

With `N\C([S-])=N/N=C\C(=N/N=C(\N)[S-])C(O)C(O)C(O)CO.[Ni+2]` (configuration not stated) the T/C (endpoint: mean survival time, dose: 80.5 mg/kg/injection, schedule: Q01DX009 (ip), vehicle: saline with Tween-80) was 102 % of control and the T/C (endpoint: mean survival time, dose: 161.0 mg/kg/injection, schedule: Q01DX009 (ip), vehicle: saline with Tween-80) was 95 % of control.

In the case of `N.N.O=C([O-])/C=C\C(=O)[O-].[Pt]`, the T/C (endpoint: mean survival time, dose: 2.5 mg/kg/injection, schedule: Q04DX003 (ip), vehicle: distilled water + Tween-80) is reported as 112 % of control, the T/C (endpoint: mean survival time, dose: 5.0 mg/kg/injection, schedule: Q04DX003 (ip), vehicle: distilled water + Tween-80) is reported as 116 % of control and the T/C (endpoint: mean survival time, dose: 10.0 mg/kg/injection, schedule: Q04DX003 (ip), vehicle: distilled water + Tween-80) is reported as 113 % of control. The T/C (endpoint: mean survival time, dose: 10.0 mg/kg/injection, schedule: Q04DX003 (ip), vehicle: water) was 105 % of control, the T/C (endpoint: mean survival time, dose: 20.0 mg/kg/injection, schedule: Q04DX003 (ip), vehicle: distilled water + Tween-80) was 118 % of control and the T/C (endpoint: mean survival time, dose: 20.0 mg/kg/injection, schedule: Q04DX003 (ip), vehicle: water) was 113 % of control. For the same molecule, the T/C (endpoint: mean survival time, dose: 40.0 mg/kg/injection, schedule: Q04DX003 (ip), vehicle: water) was 118 % of control.

For `CN(C)c1ccc(Nc2c3ccccc3nc3ccccc23)cc1`, the T/C (endpoint: mean survival time, dose: 120.0 mg/kg/injection, schedule: Q03HX040 (oral), vehicle: saline) was 154 % of control, the T/C (endpoint: mean survival time, dose: 150.0 mg/kg/injection, schedule: Q03HX008 (oral), vehicle: saline) was 124 % of control and the T/C (endpoint: mean survival time, dose: 300.0 mg/kg/injection, schedule: Q03HX016 (oral), vehicle: saline) was 152 % of control. The T/C (endpoint: median survival time, dose: 22.5 mg/kg/injection, schedule: Q01DX009 (ip), vehicle: saline) was 111 % of control, the T/C (endpoint: median survival time, dose: 45.0 mg/kg/injection, schedule: Q01DX009 (ip), vehicle: saline) was 161 % of control and 185 % of control and the T/C (endpoint: median survival time, dose: 90.0 mg/kg/injection, schedule: Q01DX009 (ip), vehicle: saline) was 188 % of control and 207 % of control.

`COC(=O)NC1C(C)OC(OC2C/C=C(/C)C3C=CC4C(OC5CC(OC6CCC(OC7CC(O)C(OC8CCC(O)C(C)O8)C(C)O7)C(C)O6)C(OC(C)=O)C(C)O5)C(C)CC(C)C4C3(C)/C(O)=C3/C(=O)OC4(CC(C=O)=CC(O)C4/C=C\2C)C3=O)CC1(C)[N+](=O)[O-]` (configuration not stated) was tested, and the T/C (endpoint: median survival time, dose: 1.25 mg/kg/injection, schedule: Q01DX009 (ip), vehicle: water) was 106 % of control, the T/C (endpoint: median survival time, dose: 2.5 mg/kg/injection, schedule: Q01DX009 (ip), vehicle: water) was 106 % of control and the T/C (endpoint: median survival time, dose: 5.0 mg/kg/injection, schedule: Q01DX009 (ip), vehicle: water) was 113 % of control. For the same molecule, the T/C (endpoint: median survival time, dose: 10.0 mg/kg/injection, schedule: Q01DX009 (ip), vehicle: water) was 121 % of control.

In the case of `ClC(Cl)c1ccccc1C(Cl)(Cl)Cl`, the T/C [7] is reported as 104 % of control, the T/C [4] is reported as 99 % of control and the T/C [1] is reported as 94 % of control. For the same molecule, the T/C [8] was 98 % of control, the T/C [5] was 101 % of control and the T/C [2] was 94 % of control. The T/C [9] was 98 % of control, the T/C [6] was 94 % of control and the T/C [3] was 88 % of control.

In the case of `C(CN1CCOCC1)CN1CN(CCCN2CCOCC2)CN(CCCN2CCOCC2)C1`, the T/C [1] is reported as 106 % of control, the T/C [2] is reported as 101 % of control and the T/C [3] is reported as 113 % of control.

`COc1ccc(OC)c(C=C(C(C)=O)C(C)=O)c1` was tested, and the T/C (endpoint: mean survival time, dose: 12.5 mg/kg/injection, schedule: Q01DX009 (ip), vehicle: water) was 95 % of control, the T/C (endpoint: mean survival time, dose: 25.0 mg/kg/injection, schedule: Q01DX009 (ip), vehicle: water) was 102 % of control and the T/C (endpoint: mean survival time, dose: 50.0 mg/kg/injection, schedule: Q01DX009 (ip), vehicle: water) was 100 % of control. The T/C (endpoint: mean survival time, dose: 100.0 mg/kg/injection, schedule: Q01DX009 (ip), vehicle: water) was 95 % of control and the T/C (endpoint: mean survival time, dose: 200.0 mg/kg/injection, schedule: Q01DX009 (ip), vehicle: water) was 88 % of control.

`CC#CC(=O)O` was tested, and the T/C (endpoint: mean survival time, dose: 100.0 mg/kg/injection, schedule: Q04DX002 (ip), vehicle: saline) was 98 % of control.

In the case of `CC1(C)C/C(=C\c2cc(O)ccc2[N+](=O)[O-])C(=O)c2ccccc21`, the T/C [4] is reported as 97 % of control, the T/C [1] is reported as 101 % of control and the T/C [5] is reported as 94 % of control. The T/C [2] was 106 % of control, the T/C [6] was 97 % of control and the T/C [3] was 103 % of control.

With `Cc1ccccc1N` the T/C [4] was 102 % of control and the T/C [5] was 107 % of control.

`NC(N)=Nc1cccc(OCCCOc2ccccc2)c1` was tested, and the T/C (endpoint: mean survival time, dose: 18.75 mg/kg/injection, schedule: Q01DX001 (ip), vehicle: saline with Tween-80) was 102 % of control, the T/C (endpoint: mean survival time, dose: 37.5 mg/kg/injection, schedule: Q01DX001 (ip), vehicle: saline with Tween-80) was 98 % of control and the T/C (endpoint: mean survival time, dose: 75.0 mg/kg/injection, schedule: Q01DX001 (ip), vehicle: saline with Tween-80) was 97 % of control.

With `CCCCCCCCCCCCNCCC(=O)O` the T/C (endpoint: mean survival time, dose: 75.0 mg/kg/injection, schedule: Q01DX001 (ip), vehicle: saline) was 93 % of control and the T/C (endpoint: mean survival time, dose: 150.0 mg/kg/injection, schedule: Q01DX001 (ip), vehicle: saline) was 93 % of control.

With `O=C(COc1ccc(S[N+](=O)[O-])cc1)c1ccccc1` the T/C [7] was 105 % of control, the T/C [8] was 103 % of control and the T/C [9] was 94 % of control.

For `CC(=O)Nc1cccc(Oc2ccc([N+](=O)[O-])cc2)c1`, the T/C (endpoint: mean survival time, dose: 100.0 mg/kg/injection, schedule: Q04DX002 (ip), vehicle: Klucel (hydroxypropylcellulose) (HPC)) was 98 % of control, the T/C (endpoint: mean survival time, dose: 200.0 mg/kg/injection, schedule: Q04DX002 (ip), vehicle: Klucel (hydroxypropylcellulose) (HPC)) was 103 % of control and the T/C (endpoint: mean survival time, dose: 400.0 mg/kg/injection, schedule: Q04DX002 (ip), vehicle: Klucel (hydroxypropylcellulose) (HPC)) was 98 % of control.

`CS(=O)(=O)OCCCN(CCCOS(C)(=O)=O)c1ccc(C=Nc2ccc(-c3csc(COc4ccc(Br)cc4)n3)cc2)cc1` was tested, and the T/C [10] was 94 % of control, the T/C [11] was 89 % of control and the T/C (endpoint: mean survival time, dose: 400.0 mg/kg/injection, schedule: Q01DX001 (ip), vehicle: saline with Tween-80) was 88 % of control.

With `CN(C)c1ccc(/C=C2\C=Nc3ccccc32)cc1` the T/C (endpoint: mean survival time, dose: 25.0 mg/kg/injection, schedule: Q04DX003 (ip), vehicle: saline with Tween-80) was 87 % of control and the T/C [1] was 87 % of control.

For `c1ccc([CH2][Pb]([c]2ccccc2)([c]2ccccc2)[c]2ccccc2)cc1`, the T/C [1] was 100 % of control, the T/C [2] was 97 % of control and the T/C [3] was 91 % of control.

In the case of `O=C1CCCC1CC1CCCC1=O` (configuration not stated), the T/C [4] is reported as 102 % of control, the T/C [5] is reported as 106 % of control and the T/C [6] is reported as 106 % of control.

For `Nc1ccc(C(=O)Nc2cccc(OCc3nc(N)nc(N)c3-c3ccc(Cl)cc3)c2)cc1`, the T/C (endpoint: mean survival time, dose: 50.0 mg/kg/injection, schedule: Q01DX001 (ip), vehicle: saline with Tween-80) was 93 % of control, the T/C [10] was 93 % of control and the T/C [11] was 93 % of control.
